Our source for the IC50 values is patent publication US7994196B2, “Indazole compound and pharmaceutical use thereof” (Mitsubishi Tanabe Pharma Corporation, priority 2004, dated 2011).

pIC50: −log10 of the molar value.

The first assay concerns MMP-9 production. Put plainly: Determination of MMP-9 Production Inhibitory Activity (PMA-stimulated HEC3 cells, gelatin zymography). The following applies: Endothelial cell; immortalized human vascular endothelial cells HEC3, PMA 10^-7 M stimulation, 24 hr; test substance at 10, 2, 0.4 and 0.08 μM; read-out: IC50 (MMP-9 production inhibitory rate). The assay is classed as cell-based. As to the method: Immortalized human vascular endothelial cells HEC3 (supplied by Prof. Iijima of Nagoya University) were subcultured in RPMI1640 medium (Sigma Ltd.) containing 10% fetal calf serum.
The HEC3 cells (5×10^4 cells/well) were plated on a 24-well plate, and cultured in RPMI1640 medium containing 10% fetal calf serum for 24 hr. Each well was washed once with serum-free RPMI1640 medium. Then, RPMI1640 medium (250 μl/well) containing 0.05% fetal calf serum was added to each well, and the cells were further cultured for 2 hr.
The supernatant was removed, and the test substances (Example compounds shown in Table 1) diluted to various concentrations were added and incubated for 1 hr in 0.05% serum-containing RPMI1640 medium and the supernatant was removed again. A medium containing a test substance having the same concentration as in the pre-treatment and PMA (10^−7 M), which is a stimulant, was added at 250 μl/well, and the cells were further cultured for 24 hr.
After completion of the culture, water (50 μl) and 25 μl of SDS buffer (240 mM Tris-HCl (pH 6.8), 8% SDS, 40% glycerol) were added to the culture supernatant (25 μl), and the mixture (10 μl) was electrophoresed on a 7.5% polyacrylamide gel containing 0.1% gelatin.
After the electrophoresis, the gel was washed with Tris-HCl buffer (pH 7.5) containing 0.5% Triton X-100 (Sigma Ltd.) for 1 hr. The gel was immersed in an activation buffer (150 mM NaCl, 50 mM Tris-HCl (pH 7.5), 10 mM CaCl2) at 37° C. for 18 hr to activate MMP-9, and then stained with CBB. The obtained MMP-9 band was converted to numerical values by a densitometer (ATTO. Ltd.).
The MMP-9 production inhibitory rate by the test substance was calculated by the following equation. MMP-9 production inhibitory rate=100−100×{(test substance addition value−non-stimulation value)/(PMA stimulation value−non-stimulation value)}
The MMP-9 production inhibitory rates of the test substance at 10, 2, 0.4 and 0.08 μM were calculated, and IC50 value of the each test substance was determined using an analysis soft (RegExcel).
The pIC50 is the negative decadic logarithm of the IC50, by convention in mol/L. `N#CC1(c2ccc(Cl)c(C(F)(F)F)c2)CCN(C(=O)Nc2n[nH]c3ccccc23)CC1` [Ex. 44]: the pIC50 is 6.35.
On to `N#CC1(c2cccc(C(F)(F)F)c2)CCN(C(=O)Nc2n[nH]c3ccccc23)CC1` [Ex. 42], for which the negative logarithm of the IC50 (pIC50) is 6.66.

Still in this assay, the particulars now being: Homo sapiens, Endothelial cell, 24 h, immortalized human vascular endothelial cells HEC3, PMA 10^-7 M stimulation, test substance at 10, 2, 0.4 and 0.08 μM, read-out: IC50 (MMP-9 production inhibitory rate).
As to `O=C(Nc1n[nH]c2ccccc12)N1CC=C(c2ccc(F)cc2)CC1` [Ex. 50], the pIC50 was 5.89.
Still for that read-out and setting: the result for `Cc1cccc(C2(O)CCN(C(=O)Nc3n[nH]c4ccccc34)CC2)c1C` [Ex. 144, 4-(2,3-dimethylphenyl)-4-hydroxy-1-piperidinecarboxylic acid (1H-indazol-3-yl)amide] reads 6.19; that for `O=C(Nc1n[nH]c2ccccc12)N1CC=C(c2ccc(F)c(Cl)c2)CC1` [Ex. 53], 6.62; that for `COCCn1c2c(c3ccccc31)CCN(C(=O)Nc1n[nH]c3ccccc13)C2` [Ex. 66], 6.20.
On the same count and under the same terms, as for `O=C(Nc1n[nH]c2ccccc12)N1CCC(O)(c2cc(C(F)(F)F)ccc2F)CC1` [Ex. 35], the figure is 6.14; as for `O=C(Nc1n[nH]c2ccccc12)N1CCN(c2ccc(F)c(C(F)(F)F)c2)CC1` [Ex. 94, 4-[4-fluoro-3-(trifluoromethyl)phenyl]-1-piperazinecarboxylic acid (1H-indazol-3-yl)amide], 6.47; as for `O=C(Nc1n[nH]c2ccccc12)N1CCC(O)(c2cccc(C(F)(F)F)c2)CC1` [Ex. 3], 6.03.
Same read-out and setting: the result for `O=C(Nc1n[nH]c2ccccc12)N1CCc2c([nH]c3cc(F)ccc23)C1` [Ex. 71] reads 6.85; that for `O=C(Nc1n[nH]c2ccccc12)N1CCn2c(nc3ccccc32)C1` [Ex. 105, 3,4-dihydropyrazino[1,2-a]benzimidazole-2-carboxylic acid (1H-indazol-3-yl)amide], 7.40; that for `Cc1ccc(F)c(C2(O)CCN(C(=O)Nc3n[nH]c4ccccc34)CC2)c1` [Ex. 130, 4-(2-fluoro-5-methylphenyl)-4-hydroxy-1-piperidinecarboxylic acid (1H-indazol-3-yl)amide], 6.21.
On to `O=C(Nc1n[nH]c2ccccc12)N1CCC(O)(c2ccc(F)c(C(F)(F)F)c2)CC1` [Ex. 9], for which the pIC50 is 6.47.
`O=C(Nc1n[nH]c2ccccc12)N1CCc2c([nH]c3ccc(F)cc23)C1` [Ex. 70]: the negative-log IC50 (pIC50) was 7.22.
As for `O=C(Nc1n[nH]c2ccccc12)N1CCc2c(sc3ccccc23)C1` [Ex. 80, 3,4-dihydro[1]benzothieno[2,3-c]pyridine-2-carboxylic acid (1H-indazol-3-yl)amide], the negative logarithm of the IC50 (pIC50) was 6.60.
Still for that read-out and setting: the result for `O=C(Nc1n[nH]c2ccccc12)N1CCN(c2cc(C(F)(F)F)ccc2Cl)CC1` [Ex. 99, 4-[2-chloro-5-(trifluoromethyl)phenyl]-1-piperazinecarboxylic acid (1H-indazol-3-yl)amide] reads 6.21; that for `Cc1cc(F)cc(C2(O)CCN(C(=O)Nc3n[nH]c4ccccc34)CC2)c1` [Ex. 138, 4-(3-fluoro-5-methylphenyl)-4-hydroxy-1-piperidinecarboxylic acid (1H-indazol-3-yl)amide], 7.00.
On the same count and under the same terms, the result for `O=C(Nc1n[nH]c2ccccc12)N1CCc2c([nH]c3cccc(Cl)c23)C1` [Ex. 78, 5-chloro-1,3,4,9-tetrahydro-β-carboline-2-carboxylic acid (1H-indazol-3-yl)amide] reads 6.55; that for `Cc1ccc2[nH]c3c(c2c1)CCN(C(=O)Nc1n[nH]c2ccccc12)C3` [Ex. 81, 6-methyl-1,3,4,9-tetrahydro-β-carboline-2-carboxylic acid (1H-indazol-3-yl)amide], 7.00; that for `Cc1ccc(C2(O)CCN(C(=O)Nc3n[nH]c4ccccc34)CC2)cc1Cl` [Ex. 132, 4-(3-chloro-4-methylphenyl)-4-hydroxy-1-piperidinecarboxylic acid (1H-indazol-3-yl)amide], 6.41.
The same measure, in the same setting: as for `COc1ccc(N2CCN(C(=O)Nc3n[nH]c4ccccc34)CC2)cc1C(F)(F)F` [Ex. 95, 4-[4-methoxy-3-(trifluoromethyl)phenyl]-1-piperazinecarboxylic acid (1H-indazol-3-yl)amide], the figure is 6.29; as for `O=C(Nc1n[nH]c2ccccc12)N1CCc2c([nH]c3cccc(F)c23)C1` [Ex. 77], 7.30.
For the compound `Cc1ccc(F)cc1C1(O)CCN(C(=O)Nc2n[nH]c3ccccc23)CC1` [Ex. 135, 4-(5-fluoro-2-methylphenyl)-4-hydroxy-1-piperidinecarboxylic acid (1H-indazol-3-yl)amide], the pIC50 is 6.31.
On the same count and under the same terms, as for `O=C(Nc1n[nH]c2ccccc12)N1CC=C(c2ccccc2F)CC1` [Ex. 52], the figure is 6.49.
Still for that read-out and setting: the result for `Cc1ccsc1C1=CCN(C(=O)Nc2n[nH]c3ccccc23)CC1` [Ex. 59] reads 6.68; that for `O=C(Nc1n[nH]c2ccccc12)N1CCc2c([nH]c3cc(Cl)c(F)cc23)C1` [Ex. 82, 7-chloro-6-fluoro-1,3,4,9-tetrahydro-β-carboline-2-carboxylic acid (1H-indazol-3-yl)amide], 7.00; that for `CSc1cccc(C2(O)CCN(C(=O)Nc3n[nH]c4ccccc34)CC2)c1` [Ex. 30], 6.52.
Same read-out and setting: the result for `Cc1c(F)cccc1C1(O)CCN(C(=O)Nc2n[nH]c3ccccc23)CC1` [Ex. 134, 4-(3-fluoro-2-methylphenyl)-4-hydroxy-1-piperidinecarboxylic acid (1H-indazol-3-yl)amide] reads 6.17; that for `O=C(Nc1n[nH]c2ccccc12)N1CCN(c2cc(F)cc(C(F)(F)F)c2)CC1` [Ex. 97, 4-[3-fluoro-5-(trifluoromethyl)phenyl]-1-piperazinecarboxylic acid (1H-indazol-3-yl)amide], 6.68.
For `O=C(Nc1n[nH]c2ccccc12)N1CCC(O)(c2cccc(Cl)c2)CC1` [Ex. 24], the negative-log IC50 (pIC50) was 6.68.
Consider `CC1CN(C(=O)Nc2n[nH]c3ccccc23)CCN1c1ccc(Cl)c(C(F)(F)F)c1` (stereo not drawn) [Ex. 117], for which the pIC50 was 6.03.
Still for that read-out and setting: the result for `O=C(Nc1n[nH]c2ccccc12)N1CCc2c(c(=O)[nH]c3ccccc23)C1` [Ex. 104, 5-oxo-1,4,5,6-tetrahydrobenzo[c]-2,7-naphthyridine-3-carboxylic acid (1H-indazol-3-yl)amide] reads 8.00.
As to `O=C(Nc1n[nH]c2ccccc12)N1CCc2c([nH]c3cc(C(F)(F)F)ccc23)C1` [Ex. 76], the pIC50 is 6.62.
Same read-out and setting: the result for `O=C(Nc1n[nH]c2ccccc12)N1CC=C(c2ccc(Cl)s2)CC1` [Ex. 58] reads 6.92.
Same read-out and setting: as for `O=C(Nc1n[nH]c2ccccc12)N1CC=C(c2cccc(C(F)(F)F)c2)CC1` [Ex. 61], the figure is 7.00; as for `O=C(Nc1n[nH]c2ccccc12)N1CC=C(c2cccc(F)c2F)CC1` [Ex. 56], 6.64.
Still for that read-out and setting: the result for `O=C(Nc1n[nH]c2ccccc12)N1CCC(O)(c2cccc(Cl)c2F)CC1` [Ex. 20] reads 6.49.
With `O=C(Nc1n[nH]c2ccccc12)N1CCN(c2cccc(C(F)(F)F)c2)CC1` [Ex. 100, 4-[3-(trifluoromethyl)phenyl]-1-piperazinecarboxylic acid (1H-indazol-3-yl)amide], the pIC50 is 6.64.
As to `N#CC1(c2ccc(Br)s2)CCN(C(=O)Nc2n[nH]c3ccccc23)CC1` [Ex. 46], the negative logarithm of the IC50 (pIC50) is 6.26.
Regarding `O=C(Nc1n[nH]c2ccccc12)N1CCC(O)(c2cc(F)cc(F)c2)CC1` [Ex. 12], the pIC50 is 6.21.
Same read-out and setting: as for `O=C(Nc1n[nH]c2ccccc12)N1CCC(c2cccc(C(F)(F)F)c2)CC1` [Ex. 112, 4-[3-(trifluoromethyl)phenyl]piperidine-1-carboxylic acid (1H-indazol-3-yl)amide], the figure is 6.15; as for `Cc1cc(C2(O)CCN(C(=O)Nc3n[nH]c4ccccc34)CC2)ccc1Cl` [Ex. 23], 6.35; as for `COc1ccc(C2=CCN(C(=O)Nc3n[nH]c4ccccc34)CC2)cc1OC` [Ex. 62], 6.16.
The same measure, in the same setting: the result for `CN(C)c1cccc(C2=CCN(C(=O)Nc3n[nH]c4ccccc34)CC2)c1` [Ex. 63] reads 6.44; that for `O=C(Nc1n[nH]c2ccccc12)N1CCN(c2ccc(Cl)c(C(F)(F)F)c2)CC1` [Ex. 93, 4-[4-chloro-3-(trifluoromethyl)phenyl]-1-piperazinecarboxylic acid (1H-indazol-3-yl)amide], 6.77; that for `O=C(Nc1n[nH]c2ccccc12)N1CC=C(c2cccc(F)c2)CC1` [Ex. 55], 6.89.
The same measure, in the same setting: as for `O=C(Nc1n[nH]c2ccccc12)N1CCC(O)(c2ccc(Cl)cc2)CC1` [Ex. 4], the figure is 6.40.
As for `COc1ccc2[nH]c3c(c2c1)CCN(C(=O)Nc1n[nH]c2ccccc12)C3` [Ex. 73], the pIC50 is 7.05.
